Laboratory results: patent US4285941A, “Cephalosporin compounds and antibacterial drugs containing the same” (Eisai Co., Ltd., priority 1979, dated 1981)
Counter-ions that a name gives are not always drawn.

Columns and labels:
[1] = Acute toxicity (LD50, mouse, oral); details: in vivo
Text: The acute toxicity values [LD50 (mouse, oral)] for the following compounds, for example, were over 5 g/kg: […]

[2] = system: Serratia marcescens ES-75; experiment: Minimal inhibitory concentration (MIC), standard agar dilution method; assay type: cell-based; details: ES75, Mueller Hinton agar, 37° C., 18 hours, Examples 1, 2, 4, 5, 6, 8 and 22 as sodium salts, others as free carboxylic acids
Method: (§1) The compounds obtained in these examples were tested for their antibacterial activities in vitro. Minimal inhibitory concentration (MIC) was determined by the standard agar dilution method of the Japan Society of Chemotherapy. Compounds were dissolved in appropriate solvents (sterilized water for sodium salts and acetone-water [1:1] for free acids) and serial two-fold dilutions were made. Sodium salt of Cefazolin was chosen as the control compound. One-ml aliquots of each dilution were mixed with 9 ml of Mueller Hinton agar in petri-dishes to make agar plates containing the compound at serially diluted concentrations. After agar hardened, plates were put in an incubator at 37° C. for 1.5-2 hours with the lids slightly open to evaporate acetone off the plates. Test organisms were grown for 18 hours at 37° C. in Trypticase Soy broth and diluted in saline to approximately 10^6 colony forming units per ml. A loopful of each cell suspension was applied on the agar plate mentioned above and the plates were incubated for 18 hours at 37° C. before MIC was determined. MIC values of the compounds of Examples 1, 2, 4, 5, 6, 8 and 22 were determined as their sodium salts and those of other compounds as free carboxylic acids.

[3] = system: Klebsiella pneumoniae EK-6; experiment: as above; assay type: cell-based; details: EK6, Mueller Hinton agar, 37° C., 18 hours, Examples 1, 2, 4, 5, 6, 8 and 22 as sodium salts, others as free carboxylic acids
Method: as §1

[4] = system: Pseudomonas aeruginosa EP-172; experiment: as above; assay type: cell-based; details: EP172, Mueller Hinton agar, 37° C., 18 hours, Examples 1, 2, 4, 5, 6, 8 and 22 as sodium salts, others as free carboxylic acids
Method: as §1

Escherichia coli NIHJ = experiment: as above; assay type: cell-based; details: Mueller Hinton agar, 37° C., 18 hours, Examples 1, 2, 4, 5, 6, 8 and 22 as sodium salts, others as free carboxylic acids
Method: as §1

[5] = system: Staphylococcus aureus 209-P; experiment: as above; assay type: cell-based; details: Mueller Hinton agar, 37° C., 18 hours, Examples 1, 2, 4, 5, 6, 8 and 22 as sodium salts, others as free carboxylic acids
Method: as §1

Proteus morganii EP-14 = experiment: as above; assay type: cell-based; details: Morganella morganii, EP14; Mueller Hinton agar, 37° C., 18 hours; Examples 1, 2, 4, 5, 6, 8 and 22 as sodium salts, others as free carboxylic acids
Method: as §1

| Compound | LD50 [1] | MIC [2] | MIC [3] | MIC [4] | MIC (Escherichia coli NIHJ) | MIC [5] | MIC (Proteus morganii EP-14) |
| --- | --- | --- | --- | --- | --- | --- | --- |
| Cn1nnnc1SCC1=C(C(=O)O)N2C(=O)[C@@H](NC(=O)[C@H](NC(=O)c3coc4cc(O)c(O)cc4c3=O)c3ccccc3)[C@H]2SC1 [Example 1, Sodium salt of 7β-[D-2-(6,7-dihydroxychromone-3-carboxamido)-2-phenylacetamido]-3-[(1-methyltetrazol-5-yl)-thiomethyl]-3-cephem-4-carboxylic acid] | > 5000 mg/kg | ≤ 0.1 µg/mL | ≤ 0.1 µg/mL | 0.8 µg/mL | 0.4 µg/mL | 1.56 µg/mL | 0.4 µg/mL |
| Cc1nnc(SCC2=C(C(=O)O)N3C(=O)[C@@H](NC(=O)[C@H](NC(=O)c4coc5cc(O)c(O)cc5c4=O)c4ccc(O)cc4)[C@H]3SC2)s1 [Example 4, Sodium salt of 7β-[D-2-(6,7-dihydroxychromone-3-carboxamido)-2-(4-hydroxyphenyl)acetamido]-3-[(5-methyl-1,3,4-thiadiazol-2-yl)thiomethyl]-3-cephem-4-carboxylicacid] | > 5000 mg/kg | ≤ 0.1 µg/mL | ≤ 0.1 µg/mL | 1.56 µg/mL | 0.8 µg/mL | 1.56 µg/mL | 1.56 µg/mL |
| CC(=O)Oc1cc2occ(C(=O)N[C@@H](C(=O)N[C@@H]3C(=O)N4C(C(=O)O)=C(CSc5nnnn5C)CS[C@H]34)c3ccccc3)c(=O)c2cc1OC(C)=O [Example 5, Sodium salt of 7β-[D-2-(6,7-diacetoxychromone-3-carboxamido)-2-phenylacetamido]-3-[(1-methyltetrazol-5-yl)thiomethyl]-3-cephem-4-carboxylic acid] | > 5000 mg/kg | ≤ 0.1 µg/mL | ≤ 0.1 µg/mL | 0.4 µg/mL | 0.2 µg/mL | 1.56 µg/mL | 0.4 µg/mL |
| Cc1nnc(SCC2=C(C(=O)O)N3C(=O)[C@@H](NC(=O)[C@H](NC(=O)c4coc5cc(O)c(O)cc5c4=O)c4ccc(O)cc4)[C@H]3SC2)o1 [Example 27, 7β-[D-2-(6,7-Dihydroxychromone-3-carboxamido)-2-(4-hydroxyphenyl)acetoamido]-3-[(5-methyl-1,3,4-oxadiazol-2-yl)thiomethyl]-3-cephem-4-carboxylic acid] |  | 0.2 µg/mL | ≤ 0.1 µg/mL | 1.56 µg/mL | 0.4 µg/mL | 0.8 µg/mL | 50 µg/mL |
| CC(=O)Oc1cc2occ(C(=O)N[C@@H](C(=O)N[C@@H]3C(=O)N4C(C(=O)O)=C(CSc5nnc(C)s5)CS[C@H]34)c3ccccc3)c(=O)c2cc1OC(C)=O [Example 6, 7β-[D-2-(6,7-Diacetoxychromone-3-carboxamido)-2-phenylacetamido]-3-[(5-methyl-1,3-4-thiadiazol-2-yl)thiomethyl]-3-cephem-4-carboxylic acid] |  | ≤ 0.1 µg/mL | ≤ 0.1 µg/mL | 3.13 µg/mL | 0.8 µg/mL | 1.56 µg/mL | 0.8 µg/mL |
